{"source": "ChEMBL document CHEMBL1201862", "about": "“PubChem BioAssay data set” (2004)", "test_in_all_cases": "inhibition of tumour cell growth, NCI panel, 48 h", "key": {"ACHN": {"system": "ACHN"}, "SK-OV-3": {"system": "SK-OV-3"}, "SN12C": {"system": "SN12C"}, "OVCAR-5": {"system": "OVCAR-5"}, "M14": {"system": "M14"}, "OVCAR-3": {"system": "OVCAR-3"}, "A498": {"system": "A498"}, "SF-539": {"system": "SF-539"}, "UACC-62": {"system": "UACC-62"}, "SK-MEL-5": {"system": "SK-MEL-5"}, "Malme-3M": {"system": "Malme-3M"}, "HCC 2998": {"system": "HCC 2998"}, "NCI/ADR-RES": {"system": "NCI/ADR-RES"}, "CCRF-CEM": {"system": "CCRF-CEM"}, "U-251": {"system": "U-251"}, "SK-MEL-28": {"system": "SK-MEL-28"}, "T47D": {"system": "T47D"}, "SR": {"system": "SR"}, "HT-29": {"system": "HT-29"}, "MDA-MB-231": {"system": "MDA-MB-231"}, "HCT-116": {"system": "HCT-116"}, "LOX IMVI": {"system": "LOX IMVI"}, "MDA-N": {"system": "MDA-N"}, "SNB-19": {"system": "SNB-19"}, "RXF 393": {"system": "RXF 393"}, "NCI-H226": {"system": "NCI-H226"}, "COLO 205": {"system": "COLO 205"}, "SK-MEL-2": {"system": "SK-MEL-2"}, "HOP-62": {"system": "HOP-62"}, "SF-268": {"system": "SF-268"}, "EKVX": {"system": "EKVX"}, "NCI-H460": {"system": "NCI-H460"}, "HOP-92": {"system": "HOP-92"}, "BT-549": {"system": "BT-549"}, "IGROV-1": {"system": "IGROV-1"}, "MOLT-4": {"system": "MOLT-4"}, "HL-60": {"system": "HL-60"}, "DU-145": {"system": "DU-145"}, "UACC-257": {"system": "UACC-257"}, "NCI-H23": {"system": "NCI-H23"}, "UO-31": {"system": "UO-31"}, "MCF7": {"system": "MCF7"}, "A549": {"system": "A549"}, "OVCAR-8": {"system": "OVCAR-8"}}, "note": "Several values for one entry are separate records, joined by “and”; a condition that tells them apart may be missing. Equal entries are not always repeated.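 96-well plates; 48 h exposure; 5 concentrations. Endpoints by linear interpolation between flanking doses. Not reached: highest tested concentration assigned. At the GI50, growth is halved.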 Activity calls are given as the source filed them. Cut-off read from the data, not from the text of the source: active = GI50 up to about 1.1 µM and inactive = higher.", "data": [{"compound": "COC(=O)CCC(C)[C@H]1CCC2C3C(C[C@H](OC(C)=O)[C@@]21C)[C@@]1(C)CCC2(C[C@H]1C[C@H]3OC(C)=O)OOC1(CCC(C)CC1)OO2", "note": "(some centres undefined)", "values": [{"measurement": "GI50", "setting": "ACHN", "value": "10.1 µM (inactive) and 6.9 µM (inactive)"}, {"measurement": "GI50", "setting": "SK-OV-3", "value": "> 100 µM (inactive)"}, {"measurement": "GI50", "setting": "SN12C", "value": "34 µM (inactive) and 33.4 µM (inactive)"}, {"measurement": "GI50", "setting": "OVCAR-5", "value": "> 100 µM (inactive)"}, {"measurement": "GI50", "setting": "M14", "value": "32.4 µM (inactive) and 18.2 µM (inactive)"}, {"measurement": "GI50", "setting": "OVCAR-3", "value": "7.1 µM (inactive) and 6.27 µM (inactive)"}, {"measurement": "GI50", "setting": "A498", "value": "> 100 µM (inactive)"}, {"measurement": "GI50", "setting": "SF-539", "value": "> 100 µM (inactive) and 58.6 µM (inactive)"}, {"measurement": "GI50", "setting": "UACC-62", "value": "< 0.01 µM (active)"}, {"measurement": "GI50", "setting": "SK-MEL-5", "value": "15.7 µM (inactive) and 9.79 µM (inactive)"}, {"measurement": "GI50", "setting": "Malme-3M", "value": "9.51 µM (inactive) and 17.9 µM (inactive)"}, {"measurement": "GI50", "setting": "HCC 2998", "value": "51.3 µM (inactive)"}, {"measurement": "GI50", "setting": "NCI/ADR-RES", "value": "> 100 µM (inactive) and 67.9 µM (inactive)"}, {"measurement": "GI50", "setting": "CCRF-CEM", "value": "6.38 µM (inactive) and 4.59 µM (inactive)"}, {"measurement": "GI50", "setting": "U-251", "value": "9.16 µM (inactive) and 5.16 µM (inactive)"}, {"measurement": "GI50", "setting": "SK-MEL-28", "value": "> 100 µM (inactive)"}, {"measurement": "GI50", "setting": "T47D", "value": "10.5 µM (inactive)"}, {"measurement": "GI50", "setting": "SR", "value": "4.55 µM (inactive) and 2.46 µM (inactive)"}, {"measurement": "GI50", "setting": "HT-29", "value": "50.5 µM (inactive) and 55.7 µM (inactive)"}, {"measurement": "GI50", "setting": "MDA-MB-231", "value": "14 µM (inactive) and 20.2 µM (inactive)"}, {"measurement": "GI50", "setting": "HCT-116", "value": "5.41 µM (inactive) and 2.77 µM (inactive)"}, {"measurement": "GI50", "setting": "LOX IMVI", "value": "7.8 µM (inactive) and 5.15 µM (inactive)"}, {"measurement": "GI50", "setting": "MDA-N", "value": "27.4 µM (inactive) and 15.7 µM (inactive)"}, {"measurement": "GI50", "setting": "SNB-19", "value": "75 µM (inactive)"}, {"measurement": "GI50", "setting": "RXF 393", "value": "72.3 µM (inactive)"}, {"measurement": "GI50", "setting": "NCI-H226", "value": "56.6 µM (inactive) and 31.8 µM (inactive)"}]}, {"compound": "CC1(C)[C@H](O)CC[C@]2(C)C3=CC[C@@]4(C)[C@@H]5C[C@](C)(CO)CC[C@]5(C)CC[C@]4(C)C3=CC[C@@H]12", "values": [{"measurement": "GI50", "setting": "COLO 205", "value": "3.23 µM (inactive)"}, {"measurement": "GI50", "setting": "SK-MEL-2", "value": "> 100 µM (inactive)"}, {"measurement": "GI50", "setting": "HOP-62", "value": "> 100 µM (inactive)"}, {"measurement": "GI50", "setting": "ACHN", "value": "2.13 µM (inactive)"}, {"measurement": "GI50", "setting": "SK-OV-3", "value": "> 100 µM (inactive)"}, {"measurement": "GI50", "setting": "SN12C", "value": "2.1 µM (inactive)"}, {"measurement": "GI50", "setting": "OVCAR-5", "value": "> 100 µM (inactive)"}, {"measurement": "GI50", "setting": "M14", "value": "> 100 µM (inactive)"}, {"measurement": "GI50", "setting": "OVCAR-3", "value": "1.79 µM (inactive)"}, {"measurement": "GI50", "setting": "SF-268", "value": "> 100 µM (inactive)"}, {"measurement": "GI50", "setting": "UACC-62", "value": "> 100 µM (inactive)"}, {"measurement": "GI50", "setting": "EKVX", "value": "> 100 µM (inactive)"}, {"measurement": "GI50", "setting": "SK-MEL-5", "value": "> 100 µM (inactive)"}, {"measurement": "GI50", "setting": "Malme-3M", "value": "> 100 µM (inactive)"}, {"measurement": "GI50", "setting": "CCRF-CEM", "value": "1.63 µM (inactive)"}, {"measurement": "GI50", "setting": "NCI-H460", "value": "1.91 µM (inactive)"}, {"measurement": "GI50", "setting": "HOP-92", "value": "> 100 µM (inactive)"}, {"measurement": "GI50", "setting": "U-251", "value": "1.84 µM (inactive)"}, {"measurement": "GI50", "setting": "BT-549", "value": "> 100 µM (inactive)"}, {"measurement": "GI50", "setting": "SK-MEL-28", "value": "> 100 µM (inactive)"}, {"measurement": "GI50", "setting": "IGROV-1", "value": "> 100 µM (inactive)"}, {"measurement": "GI50", "setting": "MOLT-4", "value": "> 100 µM (inactive)"}, {"measurement": "GI50", "setting": "HL-60", "value": "> 100 µM (inactive)"}, {"measurement": "GI50", "setting": "DU-145", "value": "> 100 µM (inactive)"}, {"measurement": "GI50", "setting": "SR", "value": "1.75 µM (inactive)"}, {"measurement": "GI50", "setting": "UACC-257", "value": "> 100 µM (inactive)"}, {"measurement": "GI50", "setting": "HCT-116", "value": "2.01 µM (inactive)"}, {"measurement": "GI50", "setting": "NCI-H23", "value": "> 100 µM (inactive)"}, {"measurement": "GI50", "setting": "UO-31", "value": "1.98 µM (inactive)"}, {"measurement": "GI50", "setting": "MCF7", "value": "> 100 µM (inactive)"}, {"measurement": "GI50", "setting": "A549", "value": "1.75 µM (inactive)"}, {"measurement": "GI50", "setting": "MDA-N", "value": "> 100 µM (inactive)"}, {"measurement": "GI50", "setting": "OVCAR-8", "value": "2.07 µM (inactive)"}]}]}
